What was measured:
[1] = tested on: purified OT-1 CD8+ T cells; test: In vitro co-culture / conditioned medium experiments with APC and OT-1 CD8+ T cells; format: cell-based, mice; conditions: purified DC or B cells pre-treated with TLR agonist, SIINFEKL, 24 hours
Method: FIGS. 14A-14D. Changes in PD-1 expression following TLR stimulation are mediated by IL-12 secreted from APCs. Panel A: Purified OT-1 T cells (T), B cells (B), or dendritic cells (DC) were activated with SIINFEKL peptide (SEQ ID NO:1, OVA) or with a non-specific peptide (NS) in the presence of either TLR1/2 (TLR1/2) agonist, TLR7 agonist (TLR7), or media alone. After 24 hours, cells were washed and co-cultured with naïve purified OT-1 CD8+ T cells for an additional 24 hours and then assessed for expression of the indicated surface receptors (4-1BB, CD3, PD-1, LAG3, CTLA-4, and TIM3) by flow cytometry. Shown is the MFI for each marker, with samples assessed in triplicate. Panel B: Purified DC were stimulated in the presence of TLR1/2 agonist, TLR7 agonist, or media alone. […] After 24 hours, cells were assessed for expression of the indicated surface receptors (4-1BB, PD-1, LAG3, and CTLA-4) by flow cytometry. Shown is mean and standard error of the MFI for each marker, with samples assessed in triplicate. […] Culture supernatant was then evaluated for the presence of IL12 p70 by ELISA. […] After 24 hours, cells were assessed for expression of the indicated surface receptors (4-1BB, PD-1, LAG3, and CTLA-4) by flow cytometry. Shown is mean and standard error of the MFI for each marker, with samples assessed in triplicate and are representative of two similar experiments. […]

[2] = tested on: ovalbumin-expressing E.G7 cells; test: Ovalbumin tumor treatment study: peptide immunization with or without TLR agonist; format: in vivo, mice; conditions: for anti-tumor effect of peptide immunization with TLR agonist: OVA or FT peptide with TLR agonist versus peptide alone, E.G7 tumors, OT-1 transfer; for LAG-3 expression on CD8+ TIL / PD-1 expression on CD8+ TIL / PD-L1 expression on tumor cells / number of CD8+ tumor-infiltrating lymphocytes: tumors at necropsy; for anti-tumor efficacy of TLR ligand adjuvant alone: with non-specific peptide, no antigen-specific T-cell activation
Method: OT-1 T cells were then adoptively transferred and the following day were immunized with SIINFEKL (SEQ ID NO:1, OVA) or FT peptide (SEQ ID NO:2) alone or with TLR1/2 or TLR7 agonist. Other groups were immunized with 100 μg anti-PD-1 antibody delivered the following day. […] This anti-tumor effect was not observed with TLR agonist treatment alone (FIG. 22). […] This was associated with a reduced PD-1 (but not LAG-3) expression on CD8+ TIL (FIG. 17C).
Ovalbumin tumor treatment studies: 10^6 ovalbumin-expressing E.G7 PD-L 1^high cells were injected subcutaneously into 6- to 10-week old female B6 mice. Ten to fifteen days post injection, when tumors were palpable and similarly sized (˜0.2 cm^3), 2×10^6 naïve OT-1 CD8+ T cells were adoptively transferred to each mouse as described above. The following day mice were immunized subcutaneously with 100 μg of an individual peptide (SIINFEKL (SEQ ID NO:1) or variant, LifeTein) in PBS, with or without TLR agonists as described above. In the group receiving PD-1 blocking antibody, 100 μg of antibody (clone G4 (52)) was injected intraperitoneally on the day following vaccination. Tumor volume was measured over time using calipers and calculated in cubic centimeters according to the following formula: (π/6)*(long axis)*(short axis)^2. Tumors obtained at necropsy were digested in media containing 1 mg/mL collagenase and 20 μg/mL DNAse I (Sigma, St. Louis, MO) for 1-2 hours at 37° C. and passed through a 100-μm screen to obtain a single-cell suspension. Tumor cells and tumor-infiltrating lymphocytes (TILs) were stained and analyzed by flow cytometry using the following panel: CD3-FITC (BD 555274), CD4-BUV395 (BD 563790), CD8-BUV805 (BD 564920), LAG-3-BV711 (BD 563179), PD1-PECF594 (BD 562523), PDL1-PECy7 (BD 558017), 41BB-PerCPeF710) (eBioscience 46-1371-82), CD45-BV510 (BD 563891) and Live/Dead Ghost dye 780 (Tonbo, San Diego, CA 13-0865-T100) or corresponding fluorescently labeled IgG controls.

Compound | PD-1 expression on OT-1 T cells activated with TLR-agonist-treated APC [1] | anti-tumor effect of peptide immunization with TLR agonist [2] | LAG-3 expression on CD8+ TIL [2] | PD-1 expression on CD8+ TIL [2] | PD-L1 expression on tumor cells [2] | number of CD8+ tumor-infiltrating lymphocytes [2] | anti-tumor efficacy of TLR ligand adjuvant alone [2]
CCNCc1nc2c(N)nc3ccccc3c2n1CC(C)(C)O [Gardiquimod] | reduced | greater anti-tumor effect | not | reduced | reduced | greater number | do not have significant anti-tumor efficacy
Pam3CSK4 | reduced | greater anti-tumor effect | not | reduced | reduced | greater number | do not have significant anti-tumor efficacy
